Source: ChEMBL document CHEMBL5370611, “Discovery of 4,5,6,7-Tetrahydropyrazolo[1.5-a]pyrizine Derivatives as Core Protein Allosteric Modulators (CpAMs) for the Inhibition of Hepatitis B Virus” (J Med Chem, 2023)
≈ marks a conversion by molar mass, not a printed value. Calls of active or inactive are those of the source. No cut-off for these calls is given here.

What was measured:
Hepatitis B virus [1] = assay: Antiviral activity against HBV infected in human HepG2.2.15 cells assessed as reduction in HBV DNA replication measured after 5 days by qPCR analysis; assay type: functional, organism-based; settings: HepG2.2.15, 120 h
[2] = Cytotoxicity against human HepDE19 cells assessed as reduction in cell viability measured after 5 days by CCK-8 method; assay type: functional; settings: HepDE19, 120 h, time 5 day
[3] = Selectivity index, ratio of CC50 for human HepDE19 cells assessed as reduction in cell viability to EC50 for HBV infected in human HepG2.2.15 cells assessed as reduction in HBV DNA replication; assay type: toxicity, cell-based; settings: HBV-infected HepG2.2.15 cells (EC50)
[4] = Metabolic stability in mouse liver microsomes assessed as clearance at 1 uM preincubated for 10 mins and measured upto 30 mins in presence of NADPH generating system by LC-MS/MS analysis; assay type: ADME, Microsome; settings: time < 40 min
[5] = Metabolic stability in human liver microsomes assessed as clearance at 1 uM preincubated for 10 mins and measured upto 30 mins in presence of NADPH generating system by LC-MS/MS analysis; assay type: ADME, Microsome; settings: time < 40 min
[6] = Lyophilization solubility of the compound in phosphate buffer at pH 6.5 incubated for 1 hr under stirring condition and 2 hrs under shaking condition by HPLC-UV analysis; assay type: physicochemical
[7] = Half life in C57BL/6 mouse plasma at 2 mg/kg, iv administered as single dose measured upto 24 hrs by LC-MS/MS analysis; assay type: ADME, organism-based
[8] = Volume of distribution at steady state in C57BL/6 mouse plasma at 2 mg/kg, iv administered as single dose measured upto 24 hrs by LC-MS/MS analysis; assay type: ADME, organism-based; settings: read-out: Vdss
[9] = Clearance in C57BL/6 mouse plasma at 2 mg/kg, iv administered as single dose measured upto 24 hrs by LC-MS/MS analysis; assay type: ADME, organism-based
[10] = Cmax in C57BL/6 mouse plasma at 5 mg/kg, po administered as single dose measured upto 24 hrs by LC-MS/MS analysis; assay type: ADME, organism-based; set-up: dose 5 mg/kg, time < 24 hrs, route po
[11] = AUC (0 to infinity) in C57BL/6 mouse plasma at 2 mg/kg, iv administered as single dose measured upto 24 hrs by LC-MS/MS analysis; assay type: ADME, organism-based; set-up: dose 2 mg/kg, time < 24 hrs, route iv
[12] = AUC (0 to infinity) in C57BL/6 mouse plasma at 5 mg/kg, po administered as single dose measured upto 24 hrs by LC-MS/MS analysis; assay type: ADME, organism-based; set-up: time < 24 hrs, dose 5 mg/kg, route po
[13] = Oral bioavailability in C57BL/6 mouse plasma at 5 mg/kg administered as single dose measured upto 24 hrs by LC-MS/MS analysis; assay type: ADME, organism-based
[14] = AUC (0 to infinity) in C57BL/6 mouse liver at 5 mg/kg, po administered as single dose measured upto 24 hrs by LC-MS/MS analysis; assay type: ADME, organism-based; set-up: time < 24 hrs, dose 5 mg/kg, route po
[15] = Ratio of AUC (0 to infinity) in liver to plasma of C57BL/6 mouse liver at 5 mg/kg, po administered as single dose measured upto 24 hrs by LC-MS/MS analysis; assay type: ADME, organism-based; settings: read-out: Ratio AUC
[16] = Plasma protein binding in mouse assessed as free fraction incubated for 5 hrs by LC-MS/MS analysis; assay type: ADME, cell-free
[17] = Half life in C57BL/6 mouse plasma at 1 mg/kg, iv administered as single dose measured upto 24 hrs by LC-MS/MS analysis; assay type: ADME, organism-based
[18] = Volume of distribution at steady state in C57BL/6 mouse plasma at 1 mg/kg, iv administered as single dose measured upto 24 hrs by LC-MS/MS analysis; assay type: ADME, organism-based; settings: read-out: Vdss
[19] = Clearance in C57BL/6 mouse plasma at 1 mg/kg, iv administered as single dose measured upto 24 hrs by LC-MS/MS analysis; assay type: ADME, organism-based
[20] = Cmax in C57BL/6 mouse plasma at 3 mg/kg, po administered as single dose measured upto 24 hrs by LC-MS/MS analysis; assay type: ADME, organism-based; set-up: time < 24 hrs, dose 3 mg/kg, route po
[21] = AUC (0 to infinity) in C57BL/6 mouse plasma at 1 mg/kg, iv administered as single dose measured upto 24 hrs by LC-MS/MS analysis; assay type: ADME, organism-based; set-up: dose 1 mg/kg, time < 24 hrs, route iv
[22] = AUC (0 to infinity) in C57BL/6 mouse plasma at 3 mg/kg, po administered as single dose measured upto 24 hrs by LC-MS/MS analysis; assay type: ADME, organism-based; set-up: time < 24 hrs, dose 3 mg/kg, route po
[23] = Oral bioavailability in C57BL/6 mouse plasma at 3 mg/kg administered as single dose measured upto 24 hrs by LC-MS/MS analysis; assay type: ADME, organism-based
[24] = AUC (0 to infinity) in C57BL/6 mouse liver at 3 mg/kg, po administered as single dose measured upto 24 hrs by LC-MS/MS analysis; assay type: ADME, organism-based; set-up: dose 3 mg/kg, time < 24 hrs, route po
[25] = Ratio of AUC (0 to infinity) in liver to plasma of C57BL/6 mouse liver at 3 mg/kg, po administered as single dose measured upto 24 hrs by LC-MS/MS analysis; assay type: ADME, organism-based; settings: read-out: Ratio AUC
Hepatitis B virus [26] = assay: In vivo antiviral activity against AAV encapsidated HBV infected in C57BL/6 mouse model assessed as log reduction in serum HBV DNA level at 20 mg/kg, BID measured on day 2 by quantitative real-time PCR analysis; assay type: functional; settings: time 2 day
Hepatitis B virus [27] = assay: In vivo antiviral activity against AAV encapsidated HBV infected in C57BL/6 mouse model assessed as log reduction in serum HBV DNA level at 20 mg/kg, BID measured on day 4 by quantitative real-time PCR analysis; assay type: functional; settings: time 4 day
Hepatitis B virus [28] = assay: In vivo antiviral activity against AAV encapsidated HBV infected in C57BL/6 mouse model assessed as reduction in serum HBV DNA level at 20 mg/kg, BID measured on day 6 by quantitative real-time PCR analysis; assay type: functional, organism-based; settings: time 6.0 day

EC50 (Hepatitis B virus [1]) | CLhep predicted at 1 µM [4] | CLhep predicted at 1 µM [5] | solubility at 3 h [6] | SMILES | CC50 [2] | selectivity ratio [3] | half-life [7] | Vd [8] | clearance [9] | Cmax [10] | AUC(0-inf) [11] | AUC(0-inf) [12] | bioavailability [13] | AUC(0-inf) [14] | Kp at 24 h [15] | fraction unbound at 5 h [16] | also measured
42 nM | 29 mL/min/kg | 6.5 mL/min/kg | 430 µg/mL (≈ 1090 µM) | C[C@H]1Cn2ncc(N3CCCC3=O)c2CN1C(=O)Nc1cc(F)c(F)c(F)c1 | > 100000 nM | > 2380 | 1 h | 1 L/kg | 13.7 mL/min/kg | 1130 ng/mL | 2440 ng·h/mL | 2640 ng·h/mL | 43% | 8550 ng·h/mL | 3.2 | 0.18 | –
124 nM | 56 mL/min/kg | 14 mL/min/kg | < 1 µg/mL | O=C(Nc1ccc(F)cc1)N1CCn2ncc(-c3ccc(F)cc3)c2C1 | 55000 nM | 443 | – | – | – | – | – | – | – | – | – | – | half-life [17]: 0.36 h; Vd [18]: 2.1 L/kg; clearance [19]: 146 mL/min/kg; Cmax [20]: 407 ng/mL; AUC(0-inf) [21]: 208 ng·h/mL; AUC(0-inf) [22]: 276 ng·h/mL; bioavailability [23]: 44%; AUC(0-inf) [24]: 5110 ng·h/mL; Kp at 24 h [25]: 18.5

SMILES | EC50 (Hepatitis B virus [1]) | CLhep predicted at 1 µM [4] | CLhep predicted at 1 µM [5] | solubility at 3 h [6] | CC50 [2] | selectivity ratio [3] | half-life [7] | Vd [8] | clearance [9] | Cmax [10] | AUC(0-inf) [11] | AUC(0-inf) [12] | bioavailability [13] | AUC(0-inf) [14] | Kp at 24 h [15] | fraction unbound at 5 h [16] | also measured
C[C@H]1Cn2ncc(N3CCOCC3=O)c2CN1C(=O)Nc1ccc(F)c(Cl)c1 | 27 nM | 39 mL/min/kg | 7.1 mL/min/kg | 156 µg/mL (≈ 383 µM) | > 100000 nM | > 3700 | 2 h | 1.4 L/kg | 10 mL/min/kg | 1330 ng/mL | 3520 ng·h/mL | 4180 ng·h/mL | 48% | 10900 ng·h/mL | 2.6 | 0.31 | log(activity) (Hepatitis B virus [26]): 0.67; log(activity) (Hepatitis B virus [27]): 0.5; Activity (Hepatitis B virus [28]): inactive
